How the values were obtained:
MRSA [1] = experiment: Zone of inhibition on MRSA-seeded agar culture plates; type: cell-based, methicillin-resistant S. aureus; conditions: 40 μL of ionic liquid applied to MRSA-seeded agar culture plates
Description: As used herein, CyMIMCI, refers to 1-alkyl-3-methyl-imidazolium chloride ionic liquids, wherein the alkyl group is a straight chain alkyl group having y carbon atoms.

MRSA [2] = experiment: Broth microdilution MIC/MBC; type: cell-based, methicillin-resistant S. aureus; conditions: for MIC: 24 h at 37° C.
Experimental: (§1) Broth microdilution tests were performed according to NCCLS guidelines. Serial two-fold dilutions of each imidazolium salt (from an original working solution which had been 0.22 μm sterile filtered) in Mueller-Hinton Broth (MHB) (100 μl) were prepared in 96-well micro-titre plates over the range 0.0000625-1% w/v. The inoculum to be tested was prepared by adjusting the turbidity of an actively overnight growing broth culture in MHB to an optical density at 550 nm equivalent to 1×10^8 CFU/ml. The suspension was further diluted to provide a final inoculum density of 2×10^5 CFU/ml in MHB as verified by total viable count. The inoculum to be tested (100 μl, 2×10^5 CFU ml^−1) was added to each well of the microdilution trays which were incubated aerobically for 24 h at 37° C. Positive and negative growth controls were included in every assay (6 replicates). After determining the MICs, minimum bactericidal concentrations (MBCs) were determined by spreading 20 μl of suspension from wells showing no growth onto MHA plates, which were then incubated for 24 h and examined for 99.9% killing.

[3] = tested on: S. epidermidis ATCC 35984; experiment: Broth microdilution MIC/MBC; type: cell-based; conditions: for MIC: S. epidermidis ATCC 35984, 24 h at 37° C.
Outline: (§2)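 Sterile-filtered imidazolium salts are diluted two-fold (0.0000625–1% w/v) in MHB, challenged with 2×10^5 CFU/ml bacteria, and held aerobically at 37 °C for 24 h. Bactericidal endpoints use 24 h MHA subculture of clear wells, requiring 99.9% kill.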

S. aureus ATCC 29213 [4] = experiment: Broth microdilution MIC/MBC; type: cell-based; conditions: for MIC: S. aureus ATCC 29213, 24 h at 37° C.
Outline: as §2

E-MRSA 15 [5] = experiment: Broth microdilution MIC/MBC; type: cell-based
Outline: as §2

B. cenocepacia J2315 [6] = experiment: Broth microdilution MIC/MBC; type: cell-based
Outline: as §2

P. mirabilis NCTC 12442 [7] = experiment: Broth microdilution MIC/MBC; type: cell-based; conditions: for MIC: P. mirabilis NCTC 12442, 24 h at 37° C.
Outline: as §2

P. aeruginosa PA01 [8] = experiment: Broth microdilution MIC/MBC; type: cell-based; conditions: for MIC: Pseudomonas aeruginosa, PA01, 24 h, P. aeruginosa PA01, 24 h at 37° C., read-out: MIC
Outline: as §2

K. aerogenes NCTC 7427 [9] = experiment: Broth microdilution MIC/MBC; type: cell-based; conditions: for MIC: K. aerogenes NCTC 7427, 24 h at 37° C.
Outline: as §2

C. tropicalis NCTC 7393 [10] = experiment: Broth microdilution MIC/MBC; type: cell-based
Outline: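 NCCLS broth microdilution; MHB; salts 0.0000625–1% w/v, 2-fold; final inoculum 2×10^5 CFU/ml; 24 h, 37 °C, aerobic. MBC = 99.9% kill on MHA subculture of no-growth wells, 24 h.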

E. coli NCTC 8196 = experiment: Broth microdilution MIC/MBC; type: cell-based; conditions: for MIC: E. coli NCTC 8196, 24 h at 37° C.
Outline: as §2

[11] = tested on: S. epidermidis ATCC 12228; experiment: Broth microdilution MIC/MBC; type: cell-based; conditions: for MIC: S. epidermidis ATCC 12228, 24 h at 37° C.
Outline: as §2

MRSA [12] = experiment: Biofilm assay (Calgary Biofilm Device), MBEC; type: cell-based, methicillin-resistant S. aureus
Experimental: (§3) Biofilms of each test organism were grown in the Calgary Biofilm Device (commercially available as the MBEC Assay™ for Physiology & Genetics, Innovotech Inc., Edmonton, Alberta, Canada). The device, a micro-titre plated based assay, consists of two parts; a microtitre plate containing the inoculated test medium and a polystyrene lid with 96 identical pegs on which the microbial biofilm forms under gyrorotary incubation. The biofilm assay was conducted according to the MBEC™ assay protocol as supplied by the manufacturer, with slight modifications. Inocula of each test organism were prepared in MHB as described above and adjusted to provide a final inoculum density of ˜10^7 CFU ml^−1 (as confirmed by viable count). 150 μl of the inoculated media was transferred to each well of the 96-well microtitre plate and the assay plate lid, bearing 96 pegs was placed into the microtitre plate. The MBEC assay plates were placed in a gyrorotary incubator (37° C., 95% relative humidity) for 24 h to permit growth and comparison of 24 h biofilms of each test strain. Positive and negative growth controls were included in each plate (6 replicates). Initial and 24 h planktonic viable counts were measured, as were 24 h biofilm counts, expressed as CFU peg^−1, according to manufacturers instructions. After 24 h, the peg lid of the MBEC assay plate was gently rinsed three times. After rinsing, the peg lid of the MBEC assay was transferred to a ‘challenge’ plate. Serial dilutions of each imidazolium salt were prepared in 200 μl of MHB containing various concentrations of IL in each well. Positive growth control and sterility control were included in each assay plate. […] Biofilms were dislodged into recovery media by sonication for 5 minutes and the peg lid discarded. The recovery plate is incubated overnight and visually checked after 24 h for turbidity. In addition, optical density measurements for each plate were recorded at 550 nm. Clear wells were taken as evidence of biofilm eradication and the MBEC value was assigned as the lowest concentration at which no growth was observed after 24 h incubation. Plates were incubated for a further 24 h to confirm biofilm eradication concentrations.

[13] = tested on: S. epidermidis ATCC 35984; experiment: Biofilm assay (Calgary Biofilm Device), MBEC; type: cell-based; conditions: for MBEC: S. epidermidis ATCC 35984 24 h biofilm, 24 h challenge
Experimental: as §3

S. aureus ATCC 29213 [14] = experiment: Biofilm assay (Calgary Biofilm Device), MBEC; type: cell-based; conditions: S. aureus ATCC 29213 24 h biofilm, 24 h challenge
Experimental: as §3

E-MRSA 15 [15] = experiment: Biofilm assay (Calgary Biofilm Device), MBEC; type: cell-based; conditions: E-MRSA 15 24 h biofilm, 24 h challenge
Experimental: as §3

B. cenocepacia J2315 [16] = experiment: Biofilm assay (Calgary Biofilm Device), MBEC; type: cell-based; conditions: B. cenocepacia J2315 24 h biofilm, 24 h challenge
Experimental: as §3

P. mirabilis NCTC 12442 [17] = experiment: Biofilm assay (Calgary Biofilm Device), MBEC; type: cell-based; conditions: P. mirabilis NCTC 12442 24 h biofilm, 24 h challenge
Experimental: as §3

E. coli PIII [18] = experiment: Biofilm assay (Calgary Biofilm Device), MBEC; type: cell-based; conditions: E. coli PIII 24 h biofilm, 24 h challenge
Experimental: as §3

P. aeruginosa PA01 [19] = experiment: Biofilm assay (Calgary Biofilm Device), MBEC; type: cell-based; conditions: P. aeruginosa PA01 24 h biofilm, 24 h challenge
Experimental: as §3

K. aerogenes NCTC 7427 [20] = experiment: Biofilm assay (Calgary Biofilm Device), MBEC; type: cell-based; conditions: K. aerogenes NCTC 7427 24 h biofilm, 24 h challenge
Experimental: as §3

C. tropicalis NCTC 7393 [21] = experiment: Biofilm assay (Calgary Biofilm Device), MBEC; type: cell-based; conditions: C. tropicalis NCTC 7393 24 h biofilm, 24 h challenge
Experimental: as §3

E. coli PIII [22] = experiment: Broth microdilution MIC; type: cell-based
Experimental: as §1

B. cereus [23] = experiment: Broth microdilution MIC/MBC; type: cell-based; conditions: Bacillus cereus, 24 h at 37° C.
Outline: as §2

[24] = tested on: S. epidermidis ATCC 12228; experiment: Biofilm assay (Calgary Biofilm Device), MBEC; type: cell-based
Experimental: as §3

B. cereus [25] = experiment: Biofilm assay (Calgary Biofilm Device), MBEC; type: cell-based; conditions: B. cereus 24 h biofilm, 24 h challenge
Experimental: as §3

[26] = Staphylococcus epidermidis, ATCC12228

## CCCCCCCCn1cc[n+](C)c1.[Cl-] [C8MIMCl]
MRSA [1]
  Zone Of Inhibition Radius: 12 mm
MRSA [2]; 99.9% killing
  MBC: >1444 µM
MRSA [2]
  MIC: 1444 µM
[3]; S. epidermidis ATCC 35984, 99.9% killing
  MBC: 1444 µM
[3]
  MIC: 722 µM
S. aureus ATCC 29213 [4]; S. aureus ATCC 29213, 99.9% killing
  MBC: >1444 µM
S. aureus ATCC 29213 [4]
  MIC: 722 µM
E-MRSA 15 [5]; E-MRSA 15, 99.9% killing
  MBC: >1444 µM
E-MRSA 15 [5]; E-MRSA 15, 24 h at 37° C.
  MIC: 722 µM
B. cenocepacia J2315 [6]; B. cenocepacia J2315, 99.9% killing
  MBC: >1444 µM
B. cenocepacia J2315 [6]; B. cenocepacia J2315, 24 h at 37° C.
  MIC: >1444 µM
P. mirabilis NCTC 12442 [7]; P. mirabilis NCTC 12442, 99.9% killing
  MBC: >1444 µM
P. mirabilis NCTC 12442 [7]
  MIC: 1444 µM
P. aeruginosa PA01 [8]; P. aeruginosa PA01, 99.9% killing
  MBC: >1444 µM
K. aerogenes NCTC 7427 [9]; K. aerogenes NCTC 7427, 99.9% killing
  MBC: >1444 µM
K. aerogenes NCTC 7427 [9]
  MIC: 1444 µM
C. tropicalis NCTC 7393 [10]; C. tropicalis NCTC 7393, 99.9% killing
  MBC: >1444 µM
C. tropicalis NCTC 7393 [10]; C. tropicalis NCTC 7393, 24 h at 37° C.
  MIC: 1444 µM
E. coli NCTC 8196; E. coli NCTC 8196, 99.9% killing
  MBC: 1444 µM
E. coli NCTC 8196
  MIC: 722 µM
[11]; S. epidermidis ATCC 12228, 99.9% killing
  MBC: 1444 µM
[11]
  MIC: 361 µM
MRSA [12]; MRSA 24 h biofilm, 24 h challenge
  MBEC: 21666 µM
MRSA [12]; MRSA biofilm
  percent weight to volume of ionic liquid that corresponds to the MBEC value: (0.5) % w/v
[13]
  MBEC: 10833 µM
[13]; S. epidermidis ATCC 35984 biofilm
  percent weight to volume of ionic liquid that corresponds to the MBEC value: (0.25) % w/v
S. aureus ATCC 29213 [14]
  MBEC: 2708 µM
E-MRSA 15 [15]
  MBEC: 2708 µM
B. cenocepacia J2315 [16]
  MBEC: 43331 µM
P. mirabilis NCTC 12442 [17]
  MBEC: 43331 µM
E. coli PIII [18]
  MBEC: 21666 µM
P. aeruginosa PA01 [19]
  MBEC: 21666 µM
K. aerogenes NCTC 7427 [20]
  MBEC: 43331 µM
C. tropicalis NCTC 7393 [21]
  MBEC: >43331 µM
E. coli PIII [22]
  MIC: 722 µM

## CCCCCCCCCCCCCC[n+]1cccc2cc(C)ccc21.[Br-] [IL3, N-tetradecyl-6-methylquinolinium bromide]
MRSA [2]; Staphylococcus aureus
  MIC: 23.2 µM
B. cereus [23]
  MIC: 2.9 µM
P. mirabilis NCTC 12442 [7]; Proteus mirabilis, NCTC12442
  MIC: 92.9 µM
P. aeruginosa PA01 [8]
  MIC: 23.2 µM
E. coli NCTC 8196; Escherichia coli, NCTC8196
  MIC: 11.6 µM
[11]; [26]
  MIC: 8.2 µM
[24]
  MBEC: 8.2 µM

## CCCCCCCCCCCCCC[n+]1ccc2ccccc2c1.[Br-] [IL4, N-tetradecylisoquinolinium bromide]
MRSA [2]; Staphylococcus aureus
  MIC: 24.1 µM
B. cereus [23]
  MIC: 3 µM
[3]; Staphylococcus epidermidis, ATCC35984, 24 h
  MIC: 7.9 µM
S. aureus ATCC 29213 [4]; Staphylococcus aureus, ATCC29213
  MIC: 7.9 µM
P. mirabilis NCTC 12442 [7]; Proteus mirabilis, NCTC12442
  MIC: 193 µM
P. aeruginosa PA01 [8]
  MIC: 48.2 µM
K. aerogenes NCTC 7427 [9]; Klebsiella aerogenes, NCTC7427
  MIC: 7.9 µM
E. coli NCTC 8196; Escherichia coli, NCTC8196
  MIC: 24.1 µM
[11]; [26]
  MIC: 7.9 µM
B. cereus [25]
  MBEC: 7.9 µM
[13]
  MBEC: 31.5 µM
S. aureus ATCC 29213 [14]
  MBEC: 126.9 µM
K. aerogenes NCTC 7427 [20]
  MBEC: 63.4 µM
[24]
  MBEC: 31.7 µM
